Test results: ChEMBL document CHEMBL1125973, “Tricyclic quinoxalines as ligands for the strychnine-insensitive glycine site” (Bioorg Med Chem Lett, 1991)

Tests used:
[1] = molecular target: Glutamate receptor ionotropic AMPA (Homo sapiens, UniProt P42261+P42262+P42263+P48058); experiment: Compound was evaluated for its binding affinity towards Ionotropic glutamate receptor AMPA in presence of [3H]- AMPA; type: protein-complex assay
[2] = molecular target: Glutamate receptor ionotropic, NMDA 1 (Rattus norvegicus, UniProt P35439); experiment: Compound was evaluated for its binding affinity towards strychnine - insensitive glycine site of NMDA receptor in presence of [3H]- Gly

SMILES	IC50 [1] [µM]	IC50 [2] [µM]
Oc1nc2cc(Cl)c(Cl)cc2n2nnnc12	> 100	77
Oc1nc2cc(Cl)c(Cl)cc2n2cnnc12	8	7
CCCCn1c(=O)c(=O)[nH]c2cc(Cl)c(Cl)cc21	–	> 100
CCn1c(=O)c(=O)[nH]c2cc(Cl)c(Cl)cc21	21	96
O=c1[nH]c2ccccc2n2nnnc12	–	> 100
Oc1nc2cc(Cl)c(Cl)cc2n2ccnc12	7	6
Cn1c(=O)c(=O)[nH]c2cc(Cl)c(Cl)cc21	36	17
O=c1[nH]c2ccccc2n2ccnc12	–	> 100
Oc1nc2cc(Cl)c(Cl)cc2nc1O [2,3-DIHYDROXY-6,7-DICHLOROQUINOXALINE]	27	4
